“Also recorded” adds a separate entry of the source.
How the values were obtained:
[1] = system: S. aureus, P. aeruginosa, E. coli, C. albicans and A. niger; experiment: Compliance with USP and/or Ph. Eur. preservative efficacy standards (Table 1); assay type: cell-based; details: for meeting European Pharmacopoeia 5.0 (Ph. Eur. B) standards as sole preservative: without any other preservative
Protocol: (§1) Antimicrobial preservative effectiveness as set forth by the examples infra was determined using an organism challenge test according to the methods described in the United States Pharmacopoeia 24 (USP) for category 1A products, and in European Pharmacopoeia 5.0 (Ph. Eur.) for parenteral and ophthalmic preparations. […] The samples were then pulled at specified intervals to determine if the antimicrobial preservative system was capable of killing or inhibiting the propagation of organisms purposely introduced into the formulation. The rate or level of antimicrobial activity determines compliance with the USP and/or Ph. Eur. preservative efficacy standards for the cited categories of preparations.
(§2) Relative to fungi, the USP standards require that the compositions maintain stasis (i.e., no growth) relative to the population of the initial inoculum over the entire 28 day test period. A category 1A product is an injection, or other parenteral including emulsions, otic, sterile nasal products and ophthalmic products made with aqueous bases or vehicles.
(§3) The margin of error in calculating microorganism populations is generally accepted to be +/−0.5 logs. Accordingly, the term “stasis”, as utilized herein relative to the above-discussed USP standards, means that the initial population cannot increase by more than 0.5 log orders, relative to the initial population.
(§4) As cited by Table 1, the Ph. […] Regarding fungi, the Ph.

[2] = cited from earlier work
[3] = system: Aspergillus niger ATCC 16404; experiment: Antimicrobial preservative effectiveness organism challenge test (USP 24 / Ph. Eur. 5.0); assay type: cell-based; details: A. niger, 7 days; 0.05 w/v % in Table 2 formulation, pH 7.5
Protocol: as §1, §2, §3, §4

[4] = system: Candida albicans ATCC 10231; experiment: as above; assay type: cell-based
Protocol: as §1, §2, §3, §4

[5] = system: Escherichia coli ATCC 8739; experiment: as above; assay type: cell-based; details: E. coli, 0.05 w/v % in Table 2 formulation, pH 7.5
Protocol: as §1, §2, §3, §4

[6] = system: Pseudomonas aeruginosa ATCC 9027; experiment: as above; assay type: cell-based; details: P. aeruginosa, 0.05 w/v % in Table 2 formulation, pH 7.5
Protocol: as §1, §2, §3, §4

[7] = system: Staphylococcus aureus ATCC 6538; experiment: as above; assay type: cell-based; details: S. aureus, pH 7.5
Protocol: as §1, §2, §3, §4

## CCCCCCCCCCCCN1CCCC1=O [N-dodecyl-2-pyrrolidone]
[1]
  meeting European Pharmacopoeia 5.0 (Ph. Eur. B) standards as sole preservative: requires a second anti-microbial agent; also recorded: insufficient as a sole agent for preservation
[2]; aqueous solutions, unless enhanced by another surfactant
  solubility limited in aqueous solutions to: ≤ 0.002%
[2]
  soluble in water up to: up to 0.002%

## CCCCCCCCN1CCCC1=O [N-Octyl-2-Pyrrolidone, N-octyl-2-pyrrolidone]
[3]
  Log Order Reductions: 0.7 log order
[4]; 0.05% composition, in 7 days
  kill of Candida albicans: essentially complete kill
[4]; C. albicans, 7 days, 0.05 w/v % in Table 2 formulation, pH 7.5
  Log Order Reductions: 4.8 log order
[5]; 6 hours
  Log Order Reductions: 5.0 log order
[5]; 24 hours
  Log Order Reductions: 5.0 log order
[5]; 7 days
  Log Order Reductions: 5.0 log order
[6]; 6 hours
  Log Order Reductions: 4.9 log order
[6]; 24 hours
  Log Order Reductions: 4.9 log order
[6]; 7 days
  Log Order Reductions: 4.9 log order
[7]; 6 hours, 0.05 w/v % in Table 2 formulation (propylene glycol 1.8, phosphate)
  Log Order Reductions: 4.9 log order
[7]; 24 hours, 0.05 w/v % in Table 2 formulation
  Log Order Reductions: 4.9 log order
[7]; 7 days, 0.05 w/v % in Table 2 formulation
  Log Order Reductions: 4.9 log order
[1]; 0.05% composition, in six hours
  kill of both gram-negative and gram-positive bacteria: essentially complete kill
[1]
  meeting European Pharmacopoeia 5.0 (Ph. Eur. B) standards as sole preservative: provided sufficient preservation to comply; also recorded: effective as a sole preservative
[1]; without any other preservative or preservative aid, isotonic pH 7.5 formulation
  meeting United States Pharmacopoeia 24 standards as sole preservative: provided sufficient preservation to comply
[2]
  soluble in water up to: up to 0.124%
